Results: patent publication US8987315B2, “Metalloenzyme inhibitor compounds” (Innocrin Pharmaceuticals, Inc., priority 2009, dated 2015)
pIC50: −log10 of the molar value.

Experiments:
CYP17 = CYP17 (Rattus norvegicus (Rat), UniProt P11715); assay: Inhibition of CYP17 (rat testicular microsomes); assay type: biochemical; settings: pooled rat testicular microsomes
CYP2C19 = CYP2C19 (Homo sapiens (Human), UniProt P33261); assay: Inhibition of liver cytochrome P450 enzymes (human liver microsomes), CYP2C19
CYP2C9 = CYP2C9 (Homo sapiens (Human), UniProt P11712); assay: Inhibition of liver cytochrome P450 enzymes (human liver microsomes), CYP2C9
CYP3A4 = CYP3A4 (Homo sapiens (Human), UniProt P08684); assay: Inhibition of liver cytochrome P450 enzymes (human liver microsomes), CYP3A4
Sequence of CYP3A4 (P08684 whole entry): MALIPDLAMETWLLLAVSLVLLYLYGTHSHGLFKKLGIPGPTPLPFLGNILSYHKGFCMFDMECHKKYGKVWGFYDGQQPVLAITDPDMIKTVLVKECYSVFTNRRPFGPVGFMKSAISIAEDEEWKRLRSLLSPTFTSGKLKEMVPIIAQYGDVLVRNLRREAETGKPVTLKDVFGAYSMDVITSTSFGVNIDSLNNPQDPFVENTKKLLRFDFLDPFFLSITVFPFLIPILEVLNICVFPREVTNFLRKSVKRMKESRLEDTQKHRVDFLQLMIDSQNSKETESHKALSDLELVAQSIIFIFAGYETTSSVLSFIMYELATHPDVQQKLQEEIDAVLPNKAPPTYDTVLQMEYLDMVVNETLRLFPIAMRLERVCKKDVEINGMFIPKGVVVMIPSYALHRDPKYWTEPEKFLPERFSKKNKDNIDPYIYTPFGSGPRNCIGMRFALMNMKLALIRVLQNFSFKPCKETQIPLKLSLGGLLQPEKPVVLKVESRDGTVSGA

Sequence of CYP17 (P11715 whole entry): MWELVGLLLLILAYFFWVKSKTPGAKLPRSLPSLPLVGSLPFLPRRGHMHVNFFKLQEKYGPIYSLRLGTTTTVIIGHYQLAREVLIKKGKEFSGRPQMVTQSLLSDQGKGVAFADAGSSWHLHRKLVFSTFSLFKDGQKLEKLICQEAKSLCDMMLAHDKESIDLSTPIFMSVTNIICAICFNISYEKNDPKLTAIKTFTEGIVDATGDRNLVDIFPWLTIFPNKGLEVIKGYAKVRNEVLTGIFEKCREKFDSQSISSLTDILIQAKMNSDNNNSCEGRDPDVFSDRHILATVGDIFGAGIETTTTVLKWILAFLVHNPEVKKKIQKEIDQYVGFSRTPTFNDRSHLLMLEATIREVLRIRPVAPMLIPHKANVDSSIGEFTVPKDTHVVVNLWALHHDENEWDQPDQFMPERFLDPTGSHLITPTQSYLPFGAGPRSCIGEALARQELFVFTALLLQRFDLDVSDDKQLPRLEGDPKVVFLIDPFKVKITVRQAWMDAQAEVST
Sequence of CYP2C9 (P11712 whole entry): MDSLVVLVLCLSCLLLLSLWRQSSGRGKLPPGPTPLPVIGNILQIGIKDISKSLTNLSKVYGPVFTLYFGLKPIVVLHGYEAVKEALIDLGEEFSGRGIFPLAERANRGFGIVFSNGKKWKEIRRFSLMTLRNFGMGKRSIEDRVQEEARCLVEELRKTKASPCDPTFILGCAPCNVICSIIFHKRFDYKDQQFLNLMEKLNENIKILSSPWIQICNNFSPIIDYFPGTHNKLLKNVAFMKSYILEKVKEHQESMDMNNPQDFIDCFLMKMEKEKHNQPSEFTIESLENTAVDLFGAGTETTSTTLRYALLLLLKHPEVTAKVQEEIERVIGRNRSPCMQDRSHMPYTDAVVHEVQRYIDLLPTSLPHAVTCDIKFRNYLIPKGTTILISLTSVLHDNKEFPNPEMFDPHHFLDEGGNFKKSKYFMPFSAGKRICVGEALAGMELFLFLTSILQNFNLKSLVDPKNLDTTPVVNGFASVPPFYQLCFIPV
Sequence of CYP2C19 (P33261 whole entry): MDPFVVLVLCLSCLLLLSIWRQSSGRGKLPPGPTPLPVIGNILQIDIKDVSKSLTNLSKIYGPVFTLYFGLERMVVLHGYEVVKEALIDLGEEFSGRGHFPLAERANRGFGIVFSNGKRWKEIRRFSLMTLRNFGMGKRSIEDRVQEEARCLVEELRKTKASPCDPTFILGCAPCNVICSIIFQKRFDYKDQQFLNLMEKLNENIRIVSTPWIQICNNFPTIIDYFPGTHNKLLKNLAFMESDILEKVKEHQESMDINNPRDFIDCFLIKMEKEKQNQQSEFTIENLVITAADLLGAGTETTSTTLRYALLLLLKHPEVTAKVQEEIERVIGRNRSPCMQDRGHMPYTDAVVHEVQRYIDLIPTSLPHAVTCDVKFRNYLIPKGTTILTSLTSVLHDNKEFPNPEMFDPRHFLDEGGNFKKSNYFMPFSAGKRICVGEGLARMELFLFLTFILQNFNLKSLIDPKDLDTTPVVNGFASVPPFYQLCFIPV

| pIC50 (CYP17) | pIC50 (CYP2C19) | pIC50 (CYP2C9) | pIC50 (CYP3A4) | Compound |
| --- | --- | --- | --- | --- |
| 6.40 | 4.43 | 5.15 | < 3.70 | CC(C)C(c1ccc2cc(OC(F)F)c(OC(F)F)cc2c1)n1ncnn1 (centres unmarked) [Example 1, 2-(1-(6,7-bis(difluoromethoxy)naphthalen-2-yl)-2-methylpropyl)-2H-tetrazole] |
| 6.57 | 4.52 | 5.32 | < 3.70 | COc1cc2ccc(C(C(C)C)n3ncnn3)cc2cc1OC (centres unmarked) [Example 3, 2-(1-(6,7-Dimethoxynaphthalen-2-yl)-2-methylpropyl)-2H-tetrazole] |
| 6.68 | 4.46 | 4.82 | – | CC(C)C(c1ccc2cc(OC(F)F)ccc2c1)n1ncnn1 (centres unmarked) [Example 4, 2-(1-(6-(difluoromethoxy)naphthalen-2-yl)-2-methylpropyl)-2H-tetrazole] |
| 6.34 | 4.35 | 4.57 | – | CC(C)C(c1ccc2cc(OCC(F)(F)F)ccc2c1)n1ncnn1 (centres unmarked) [Example 2, 2-(2-Methyl-1-(6-(2,2,2-trifluoroethoxy)naphthalen-2-yl)propyl)-2H-tetrazole] |
